Assay results taken from patent US7320975B2, “2-(2-pyridyl)-5-phenyl-6-aminopyrimidine, method and intermediate products for the production and use thereof for combating noxious fungi” (BASF Aktiengesellschaft, priority 2002, dated 2008).

Assay: Lipophilicity parameter log Pow by RP HPLC run time method (OECD test guidelines)
Assay type: physicochemical
Experimental: The determination of the lipophilicity parameter log Pow (Table I) was carried out in accordance with OECD test guidelines using the RP HPLC run time method.
To this end, a log k′/log Pow correlation curve based on ten reference substances was plotted and was validated with the help of the lipophilicity parameters of eight comparison substances established through the extraction method.
A commercially available reversed-phase C18 stationary phase was used as stationary phase. Chromatographic separation was carried out with methanol and a buffer solution as mobile phase at pH 7.4 under isocratic conditions.
The retention times of the standards tR were converted in accordance with equation Φ into the capacity factors k′, in which t0, as reaction time of the solvent unretarded on the reversed-phase C18 stationary phase, represents the dead time of the chromatographic system:
The linear correlation of the log k′ values with the log Pow values of the standards published in the appendix to the guidelines 92/69/EEC yields the correlation curve through linear regression.
The lipophilicity parameters log Pow of the analytes were after calculation of the logarithmic capacity factor log k′ interpolated from the correlation curve of the standards.

[1] = RP HPLC run time method (OECD test guidelines)
[2] = RP HPLC run time method, OECD test guidelines

Row | log Pow [1] | log Pow [2] | SMILES
1 | log Pow 4.08 |  | CCN(CC)c1nc(-c2ccccn2)nc(Cl)c1-c1c(F)cc(F)cc1F [1-9]
2 | log Pow 4.75 |  | C[C@H](Nc1nc(-c2ccccn2)nc(Cl)c1-c1c(F)cc(F)cc1F)C(C)(C)C [1-10]
3 | log Pow 4.73 | logPow 4.73 | C=C(C)CN(CC)c1nc(-c2ccccn2)nc(Cl)c1-c1c(F)cccc1Cl [I-2]
4 | log Pow 3.59 | logPow 3.59 | CC(C)Nc1nc(-c2ccccn2)nc(Cl)c1-c1c(F)cccc1Cl [I-3]
5 | log Pow 4.23 | logPow 4.23 | CCN(CC)c1nc(-c2ccccn2)nc(Cl)c1-c1c(F)cccc1Cl [I-5]
6 | log Pow 4.8 | logPow 4.8 | C[C@@H](Nc1nc(-c2ccccn2)nc(Cl)c1-c1c(F)cccc1Cl)C(C)(C)C [I-7]
7 |  | logPow 4.08 | CCN(CC)c1nc(-c2ccccn2)nc(Cl)c1-c1c(F)cc(F)cc1F [I-9]
8 | log Pow 4.5 | logPow 4.5 | C[C@H](Nc1nc(-c2ccccn2)nc(Cl)c1-c1c(F)cc(F)cc1F)C(F)(F)F [I-12]
9 | log Pow 4.25 | logPow 4.25 | Cc1cccc(-c2nc(Cl)c(-c3c(F)cc(F)cc3F)c(N3CCOCC3)n2)n1 [I-24]
10 | logP 5.0 | logP 5.0 | CCN(CC)c1nc(-c2ccccn2)nc(Cl)c1-c1c(F)cc(OC)cc1F [I-64]
11 | logP 4.0 | logP 4.0 | CCNc1nc(-c2ccccn2)nc(Cl)c1-c1c(F)cc(OC)cc1F [I-65]
12 | log.P 3.0 | log.P 3.0 | CC(C)Nc1nc(-c2ccccn2)nc(Cl)c1-c1c(F)cc(O)cc1F [I-70]
13 | logP 4.7 | logP 4.7 | CCN(CC)c1nc(-c2ccccn2)nc(Cl)c1-c1c(F)cccc1F [I-81]
14 | logP 5.0 | logP 5.0 | CC(C)[C@H](C)Nc1nc(-c2ccccn2)nc(Cl)c1-c1c(F)cccc1F [I-82]
15 | logP 4.1 | logP 4.1 | CC(C)Nc1nc(-c2ccccn2)nc(Cl)c1-c1c(F)cccc1F [I-83]
16 | logP 5.0 | logP 5.0 | CC(C)[C@@H](C)Nc1nc(-c2ccccn2)nc(Cl)c1-c1c(F)cccc1F [I-84]
17 | logP 4.6 | logP 4.6 | CCNc1nc(-c2ccccn2)nc(Cl)c1-c1ccc(C)cc1C [I-90]
18 | logP 4.8 | logP 4.8 | Cc1ccc(-c2c(Cl)nc(-c3ccccn3)nc2NC(C)C)c(F)c1 [I-94]
19 | logP 4.1 | logP 4.1 | CCNc1nc(-c2ccccn2)nc(Cl)c1-c1ccc(F)cc1C [I-114]
20 | logP 4.6 | logP 4.6 | CCN(CC)c1nc(-c2ncccc2C)nc(Cl)c1-c1c(F)cc(F)cc1F [I-117]
